From patent US6160004A, “C-10 carbon-substituted artemisinin-like trioxane compounds having antimalarial, antiproliferative and antitumor activities” (priority 1998, dated 2000) come the findings set out here.

Common to all, as to assay: cells
Format in all cases: cell-based

In experiment [1] the test system is SF-539. The following applies: Homo sapiens, SF-539, 48 h, read-out: Log10 LC50 (converted).
For experiment [2], the system named is MALME-3M. The following applies: Homo sapiens, MALME-3M, melanoma, 48 h.
Experiment [3] concerns SNB-75. The following applies: Homo sapiens.
In experiment [4] the test system is RXF 393. The following applies: Homo sapiens.
Experiment [5] concerns OVCAR-5. The settings on record: Homo sapiens.
The subject of experiment [6] is KM12. The settings on record: Homo sapiens.
Experiment [7] concerns HCT-116. The following applies: Homo sapiens, HCT-116, 48 h; read-out: Log10 TGI (converted).
The subject of experiment [8] is SK-MEL-28. The following applies: Homo sapiens.
Experiment [9] relates to HOP-62. The settings on record: Homo sapiens; HOP-62, non-small cell lung cancer, 48 h; read-out: Log10 TGI (converted).
The test system of experiment [10] is SK-MEL-2. The settings on record: Homo sapiens, SK-MEL-2, 48 h, read-out: Log10 LC50 (converted).
In experiment [11] the test system is OVCAR-8. The settings on record: Homo sapiens, OVCAR-8, 48 h, read-out: Log10 LC50 (converted).
The subject of experiment [12] is HCT-15. The following applies: Homo sapiens, HCT-15, 48 h, read-out: Log10 LC50 (converted).
Experiment [13] has as its system MCF7/ADR-RES. The following applies: Homo sapiens.
Experiment [14] relates to MDA-MB231/ATCC. The settings on record: Homo sapiens, MDA-MB-231, breast cancer, 48 h.
The mark [15] stands for this setting: read-out: Log10 GI50 (converted).

Take `C[C@H]1[C@@H](F)O[C@@H]2O[C@@]3(C)CC[C@H]4[C@H](C)CC[C@@H]1[C@@]24OO3` [Compound VI, 10β-Fluoro-10-deoxoartemisinin]: the CC50 in [1] was greater than 100 µM; in [3] (SNB-75, 48 h, read-out: Log10 LC50 (converted)), greater than 100 µM; in experiment [4] (RXF 393, 48 h, read-out: Log10 LC50 (converted)), greater than 100 µM; in [5] (OVCAR-5, 48 h, read-out: Log10 LC50 (converted)), greater than 100 µM; in [6] (KM12, 48 h, read-out: Log10 LC50 (converted)), greater than 100 µM; in [8] (SK-MEL-28, 48 h, read-out: Log10 LC50 (converted)), greater than 100 µM. The CC50 is greater than 100 µM in experiment [10]; greater than 100 µM in experiment [11]; greater than 100 µM in experiment [12]; greater than 100 µM in [13] (MCF7, 48 h, read-out: Log10 LC50 (converted)); greater than 100 µM in experiment [14] (read-out: Log10 LC50 (converted)). Besides, the GI50 (commonly the concentration at which growth is held to half of that of the control) is 2.34 µM in [2] (setting [15]); 17 µM in experiment [5] (OVCAR-5, ovarian cancer, 48 h, read-out: Log10 GI50 (converted)); 0.437 µM in experiment [6] (KM12, colon cancer, 48 h, read-out: Log10 GI50 (converted)); 13.2 µM in experiment [14] (setting [15]). The IC (TGI) in experiment [2] (read-out: Log10 TGI) is greater than 100 µM; in experiment [3] (SNB-75, CNS cancer, 48 h, read-out: Log10 TGI), greater than 100 µM; in experiment [4] (RXF 393, renal cancer, 48 h, read-out: Log10 TGI) it was greater than 100 µM; in experiment [5] (OVCAR-5, ovarian cancer, 48 h, read-out: Log10 TGI (converted)) it was greater than 100 µM; in experiment [7] it was greater than 100 µM; in [8] (SK-MEL-28, melanoma, 48 h, read-out: Log10 TGI) it was greater than 100 µM. The IC (TGI) in experiment [9] was 61.7 µM; in experiment [13] (MCF7/ADR-RES, breast cancer, 48 h, read-out: Log10 TGI), greater than 100 µM.
